{"source": "paper PMC10781691", "about": "“Vertical pathway inhibition of receptor tyrosine kinases and BAD with synergistic efficacy in triple negative breast cancer” (NPJ Precision Oncology, 2024)", "key": {"Ron": {"tested_on": "Ron", "parameters": "method as in SelleckChem", "conditions": "ref SelleckChem; cited from earlier work"}, "c-Met": {"tested_on": "c-Met", "conditions": "cited from earlier work"}, "VEGFR2": {"tested_on": "VEGFR2", "conditions": "ref SelleckChem; read-out: IC50 VEGFR2; cited from earlier work"}, "Flt-3": {"tested_on": "Flt-3", "parameters": "method as in SelleckChem", "conditions": "ref SelleckChem; cited from earlier work"}, "Axl": {"tested_on": "Axl", "parameters": "method as in SelleckChem", "conditions": "ref SelleckChem; cited from earlier work"}, "USTC-0 PDX": {"tested_on": "USTC-0 PDX", "test": "TNBC patient-derived xenograft", "assay_type": "in vivo, NOD/SCID mice", "procedure": "(§1) The effect of drug treatments on two patient-derived xenograft (PDX) models of TNBC, USTC-0 and USTC-1 were next examined. The use of the USTC-1 PDX was previously reported.\n(§2) In vivo bioluminescent imaging was performed to determine the incidence and metastatic burden of luciferase-labeled 4T1 cells. Mice were injected i.p. with 10 mg/ml of D-luciferin (Gold Biotechnology, MO, USA) and imaged using a PerkinElmer IVIS Spectrum system. PDX were generated as previously described by transplanting fresh fragments orthotopically into 8-week-old female nonobese diabetic (NOD)/severe combined immunodeficient (SCID) mice (Beijing Vital River Laboratory Animal Technology Co., Beijing, China) (P1, passage 1)[40]. The P1 xenografts were then fragmented, digested into single-cell suspension and implanted into mammary fat pad (100 μL PBS containing growth factor reduced 50% Matrigel) of NOD/SCID mice. Once orthotopic xenografts reached an approximate size of 100 mm^3, the mice were randomly divided into three groups (n = 8) for single drug studies and six groups (n = 6) for combination studies and Kaplan-Meier (KM) analyses. […] Animal body weight and xenograft size were measured daily using an electronic balance and a digital caliper, respectively. Xenograft volume (mm^3) was calculated by using the formula: 0.52 × length × [width]^2. Complete response (CR) was achieved if the average xenograft volume for the treatment group was unable to be determined for two or more consecutive measurements. Partial response (PR) was achieved if the average xenograft volume reduced to <50 mm^3 for two or more consecutive measurements. After 3-week drug treatment, all mice were sacrificed by CO2 inhalation. Tumor and vital organs were weighed and isolated for further analysis. IHC analysis of xenograft histology sections and quantitative polymerase chain reaction (qPCR) were performed as previously described. […] For PDX, xenograft growth was monitored daily by measurement of the xenograft volume until mice humane endpoint ( ~ 1000 mm^3)."}, "USTC-1 PDX": {"tested_on": "USTC-1 PDX", "test": "TNBC patient-derived xenograft", "assay_type": "in vivo, NOD/SCID mice", "procedure": "as §1, §2"}, "MDA-MB-231 xenografts": {"tested_on": "MDA-MB-231 xenografts", "test": "Orthotopic xenograft, combination study", "assay_type": "in vivo, BALB/c-nude mice", "procedure": "In vivo bioluminescent imaging was performed to determine the incidence and metastatic burden of luciferase-labeled 4T1 cells. Mice were injected i.p. with 10 mg/ml of D-luciferin (Gold Biotechnology, MO, USA) and imaged using a PerkinElmer IVIS Spectrum system. PDX were generated as previously described by transplanting fresh fragments orthotopically into 8-week-old female nonobese diabetic (NOD)/severe combined immunodeficient (SCID) mice (Beijing Vital River Laboratory Animal Technology Co., Beijing, China) (P1, passage 1)[40]. The P1 xenografts were then fragmented, digested into single-cell suspension and implanted into mammary fat pad (100 μL PBS containing growth factor reduced 50% Matrigel) of NOD/SCID mice. Once orthotopic xenografts reached an approximate size of 100 mm^3, the mice were randomly divided into three groups (n = 8) for single drug studies and six groups (n = 6) for combination studies and Kaplan-Meier (KM) analyses. […] Animal body weight and xenograft size were measured daily using an electronic balance and a digital caliper, respectively. Xenograft volume (mm^3) was calculated by using the formula: 0.52 × length × [width]^2. Complete response (CR) was achieved if the average xenograft volume for the treatment group was unable to be determined for two or more consecutive measurements. Partial response (PR) was achieved if the average xenograft volume reduced to <50 mm^3 for two or more consecutive measurements. After 3-week drug treatment, all mice were sacrificed by CO2 inhalation. Tumor and vital organs were weighed and isolated for further analysis. IHC analysis of xenograft histology sections and quantitative polymerase chain reaction (qPCR) were performed as previously described.\nData represent means ± SD. *P < 0.05, **P < 0.01, and ***P < 0.001.\nData represent means ± SD (n=6). *P < 0.05, **P\n< 0.01, and ***P < 0.001.\nAbbreviations: ALT/GOT, alanine\naminotransferase/ glutamic oxaloacetic transaminase; AST/GPT, aspartate aminotransferase/\nglutamic pyruvic transaminase; CREA, creatinine; UREA, urea; and ALB, albumin. Data\nrepresent means ± SD. *P < 0.05, **P < 0.01, and ***P < 0.001."}, "BT549 cells": {"tested_on": "BT549 cells", "test": "Foci formation (crystal violet)", "conditions": "BT549, 5 μM each"}, "MDA-MB-231 cells": {"tested_on": "MDA-MB-231 cells", "test": "Foci formation (crystal violet)", "conditions": "MDA-MB-231, 5 μM each"}, "[1]": {"tested_on": "MAPK and PI3K/AKT pathways", "test": "Western blot of PI3K/AKT and MAPK pathway proteins", "assay_type": "cell-based, human", "procedure": "Next, western blot analyses were performed to determine potential alteration in expression or activity of the target proteins along the MAPK and PI3K/AKT pathways. […] . […] CI analysis method."}, "[2]": {"tested_on": "BAD phosphorylation at Ser99", "test": "Western blot of BAD phosphorylation at Ser99 in TNBC cells", "assay_type": "cell-based, human", "conditions": "MDA-MB-231 and BT549 cells, 1 μM"}, "4T1-luciferase cells": {"tested_on": "4T1-luciferase cells", "conditions": "4T1-luciferase metastasis model", "procedure": "Since metastasis is the primary contributor to mortality and poor prognosis for TNBC patients, the therapeutic potential of NCK, TKIs or combined NCK-TKI treatment on TNBC metastasis was further evaluated with an experimental lung metastasis model.\nas §2\nluciferase cell generated metastasis model. Scale bar, 20 µm. (C) Animal weight of each\ntreatment group was indicated. (D) Changes in relative lung, liver, spleen, heart and kidney\n(CRI) or combinations during the study at day 9."}, "Src": {"tested_on": "Src", "parameters": "method as in SelleckChem", "conditions": "ref SelleckChem; cited from earlier work"}, "ErbB2": {"tested_on": "ErbB2", "parameters": "method as in SelleckChem", "conditions": "ref SelleckChem; cited from earlier work"}, "MEK/ERK": {"tested_on": "MEK/ERK", "parameters": "method as in SelleckChem", "conditions": "ref SelleckChem; cited from earlier work"}, "FGFR1": {"tested_on": "FGFR1", "conditions": "read-out: IC50 FGFR1; ref SelleckChem; cited from earlier work"}, "Raf1": {"tested_on": "Raf1", "parameters": "method as in SelleckChem", "conditions": "ref SelleckChem; cited from earlier work"}, "c-Kit": {"tested_on": "c-Kit", "conditions": "ref SelleckChem; read-out: IC50 c-Kit; cited from earlier work"}, "PDGFR-β": {"tested_on": "PDGFR-β", "parameters": "method as in SelleckChem", "conditions": "ref SelleckChem; cited from earlier work"}, "VEGFR3": {"tested_on": "VEGFR3", "parameters": "method as in SelleckChem", "conditions": "ref SelleckChem; cited from earlier work"}, "Tie-2": {"tested_on": "Tie-2", "parameters": "method as in SelleckChem", "conditions": "ref SelleckChem; cited from earlier work"}}, "note": "Read-outs that look alike come from different tables or passages of the source."}
{"compound": "Nc1nccc(Oc2ccc(NC(=O)c3c[nH]cc(-c4ccc(F)cc4)c3=O)cc2F)c1Cl", "note": "[BMS-794833]", "values": [{"measurement": "IC50", "setting": "Ron", "result": "< 3", "unit": "nM"}, {"measurement": "IC50", "setting": "c-Met; ref SelleckChem, read-out: IC50 c-Met", "result": 1.7, "unit": "nM"}, {"measurement": "IC50", "setting": "VEGFR2", "result": 15, "unit": "nM"}, {"measurement": "IC50", "setting": "Flt-3", "result": "< 3", "unit": "nM"}, {"measurement": "IC50", "setting": "Axl", "result": "< 3", "unit": "nM"}]}
{"compound": "C[C@@H](Oc1cc(-c2cnn(C3CCNCC3)c2)cnc1N)c1c(Cl)ccc(F)c1Cl", "note": "[Crizotinib]", "values": [{"measurement": "PDX xenograft volume", "setting": "USTC-0 PDX; USTC-0, 21 days treatment", "result": "significantly reduced the xenograft volume"}, {"measurement": "survival of PDX-bearing mice", "setting": "USTC-0 PDX; USTC-0, single agents vs vehicle, combinations vs OSI-930 or Crizotinib alone", "result": "markedly extended the survival"}, {"measurement": "Median survival", "setting": "USTC-0 PDX; USTC-0, vehicle 25.5", "result": 34.5, "unit": "days"}, {"measurement": "PDX xenograft volume", "setting": "USTC-1 PDX; USTC-1, 21 days treatment", "result": "significantly reduced the xenograft volume"}, {"measurement": "Median survival", "setting": "USTC-1 PDX; USTC-1, vehicle 22.5", "result": 27.0, "unit": "days"}, {"measurement": "% Regression: Complete Response (100%)", "setting": "MDA-MB-231 xenografts; MDA-MB-231 xenograft, day 21", "result": 17, "unit": "%"}, {"measurement": "% Regression: Partial Response (>50%)", "setting": "MDA-MB-231 xenografts; MDA-MB-231 xenograft, day 21", "result": 17, "unit": "%"}, {"measurement": "% Regression: Disease Progression", "setting": "MDA-MB-231 xenografts; MDA-MB-231 xenograft, day 21 (xenograft volume >100 mm^3)", "result": 66, "unit": "%"}, {"measurement": "complete regression of xenografts", "setting": "MDA-MB-231 xenografts; day 21, NCK 20 mg/kg q.d., OSI-930 20 mg/kg q.d., Crizotinib 50 mg/kg b.i.w.", "result": 16.67, "unit": "%"}, {"measurement": "2D foci formation", "setting": "BT549 cells", "result": "significantly attenuated the capacity for foci formation"}, {"measurement": "IC50", "setting": "c-Met; no reference given, read-out: potency on c-MET", "result": "[…]"}, {"measurement": "2D foci formation", "setting": "MDA-MB-231 cells", "result": "significantly attenuated the capacity for foci formation"}, {"measurement": "phosphorylated and total proteins of MAPK and PI3K/AKT pathways", "setting": "[1]; BT549, 1 μM", "result": "significantly reduced the level of p-AKT (Ser473)/AKT"}, {"measurement": "phosphorylated and total proteins of MAPK and PI3K/AKT pathways", "setting": "[1]; MDA-MB-231, 1 μM", "result": "significantly inhibited the PI3K/AKT pathway"}, {"measurement": "level of pBADSer99/BAD", "setting": "[2]", "result": "significantly decreased the level of pBADSer99/BAD"}, {"measurement": "lung metastases (bioluminescent signals) vs control", "setting": "4T1-luciferase cells", "result": "significantly abrogated lung metastases"}]}
{"compound": "CCOc1cc2ncc(C#N)c(Nc3ccc(F)c(Cl)c3)c2cc1NC(=O)/C=C/CN(C)C", "note": "[Pelitinib]", "values": [{"measurement": "IC50", "setting": "Src", "result": 282, "unit": "nM"}, {"measurement": "IC50", "setting": "ErbB2", "result": 1260, "unit": "nM"}, {"measurement": "IC50", "setting": "MEK/ERK", "result": 800, "unit": "nM"}]}
{"compound": "Cc1ccc(C(=O)Nc2ccc(CN3CCN(C)CC3)c(C(F)(F)F)c2)cc1C#Cc1cnc2cccnn12", "note": "[Ponatinib]", "values": [{"measurement": "IC50", "setting": "Src", "result": 5.4, "unit": "nM"}, {"measurement": "IC50", "setting": "FGFR1", "result": "[…]"}]}
{"compound": "CNC(=O)c1cc(Oc2ccc(NC(=O)Nc3ccc(Cl)c(C(F)(F)F)c3)cc2)ccn1", "note": "[Sorafenib]", "values": [{"measurement": "IC50", "setting": "Raf1", "result": 6, "unit": "nM"}, {"measurement": "IC50", "setting": "c-Kit", "result": 68, "unit": "nM"}, {"measurement": "IC50", "setting": "PDGFR-β", "result": "[…]"}, {"measurement": "IC50", "setting": "Flt-3", "result": "[…]"}, {"measurement": "IC50", "setting": "VEGFR3", "result": "[…]"}]}
{"compound": "COc1ccc2cc(-c3nc(-c4ccc([S+](C)[O-])cc4)[nH]c3-c3ccncc3)ccc2c1", "note": "(centres unmarked) [Tie2 kinase inhibitor]", "values": [{"measurement": "IC50", "setting": "Tie-2", "result": 0.25, "unit": "nM"}]}
